Measured values: patent publication US12091425B2 (AMGEN INC., priority 2016, dated 2024)

Experiments:
[1] = target: T1, Mcl-1/Bim interaction, recombinant human Mcl-1 (171-327) (Homo sapiens, UniProt Q07820); assay: Cell free Mcl-1: Bim Affinity Assay (Mcl-1 HTRF); assay type: binding; details: cell free Mcl-1:Bim TR-FRET, recombinant human Mcl-1 (171-327)
T1 construct: made in house
Method in brief: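 Compounds were mixed with the protein and a biotinylated Bim peptide spanning human residues 51-76. Plates were left overnight, then TR-FRET signal was measured. A four-parameter sigmoidal model applied to duplicate competition data gave IC50.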

[2] = test system: OPM-2 human multiple myeloma cell line; assay: Cell Viability Assay (OPM-2 10 FBS); assay type: cell-based; details: OPM-2 cells, 16 h, CellTiter-Glo
Method in brief: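 Plated at 3000 cells/well in 10% FBS complete medium, the cells received a serial compound dilution series and incubated 16 h at 37 °C with 5% CO2. CellTiter-Glo was then added; IC50 values were fitted with a logistic 4-parameter model.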

T1 sequence (Q07820 171-327): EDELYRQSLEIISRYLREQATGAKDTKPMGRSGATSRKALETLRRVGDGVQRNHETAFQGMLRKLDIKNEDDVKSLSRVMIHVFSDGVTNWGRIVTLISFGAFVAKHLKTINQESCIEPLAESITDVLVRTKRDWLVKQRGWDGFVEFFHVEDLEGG

SMILES | IC50 [1] | IC50 ([2]; Homo sapiens, OPM-2, 16 h) | IC50 [2]
COC(=O)C[C@@H]1CC/C=C/[C@H](OC)[C@@H]2CC[C@H]2CN2C[C@@]3(CCCc4cc(Cl)ccc43)COc3ccc(cc32)C(=O)NS1(=O)=O [Example 624] | 0.338 nM |  | 455 nM
CC[C@@H]1CC/C=C/[C@H](O)[C@@H]2CC[C@H]2CN2C[C@@]3(CCCc4cc(Cl)ccc43)COc3cc(F)c(cc32)C(=O)NS1(=O)=O [Example 655, (1S,3′R,6′R,7′S,8′E,12′R)-6-chloro-12′-ethyl-17′-fluoro-7′-hydroxy-3,4-dihydro-2H,15′H-spiro[naphthalene-1,22′-[20]oxa[13]thia[1,14]diazatetracyclo[14.7.2.0^3,6.0^19,24]pentacosa [8,16,18,24]tetraen]-15′-one 13′,13′-dioxide] | 0.884 nM | 947 nM | 
CC[C@@H]1CC/C=C/[C@H](O)[C@@H]2CC[C@H]2CN2C[C@@]3(CCCc4cc(Cl)ccc43)COc3cc(Cl)c(cc32)C(=O)NS1(=O)=O [Example 657, (1S,3′R,6′R,7′S,8′E,12′R)-6,17′-dichloro-12′-ethyl-7′-hydroxy-3,4-dihydro-2H,15′H-spiro[naphthalene-1,22′-[20]oxa[13]thia[1,14]diazatetracyclo[14.7.2.0^3,6.0^19,24]pentacosa[8,16,18,24]tetraen]-15′-one 13′,13′-dioxide] | 11.2 nM | 24700 nM | 
O=C1NS(=O)(=O)NCCC/C=C/[C@H](O)[C@@H]2CC[C@H]2CN2C[C@@]3(CCCc4cc(Cl)ccc43)COc3ccc1cc32 [Example 660, (1S,3′R,6′R,7′S,8′E)-6-chloro-7′-hydroxy-3,4-dihydro-2H,16′H-spiro[naphthalene-1,23′-[21]oxa[14]thia[1,13,15]triazatetracyclo[15.7.2.0^3,6.0^20,25]hexacosa[8,17,19,25]tetraen]-16′-one 14′,14′-dioxide] | 0.376 nM | 416 nM | 
COCCN1CCC/C=C/[C@H](O)[C@@H]2CC[C@H]2CN2C[C@@]3(CCCc4cc(Cl)ccc43)COc3ccc(cc32)C(=O)NS1(=O)=O [Example 665, (1S,3′R,6′R,7′S,8′E)-6-chloro-7′-hydroxy-13′-(2-methoxyethyl)-3,4-dihydro-2H,16′H-spiro[naphthalene-1,23′-[21]oxa[14]thia[1,13,15]triazatetracyclo[15.7.2.0^3,6.0^20,25]hexacosa[8,17,19,25]tetraen]-16′-one 14′,14′-dioxide] | 2.89 nM | 1320 nM | 
CC[C@@H]1CC/C=C/[C@H](OC)[C@@H]2CC[C@H]2CN2C[C@@]3(CCCc4cc(Cl)ccc43)COc3cc(Cl)c(cc32)C(=O)NS1(=O)=O [Example 688, (1S,3′R,6′R,7′S,8′E,12′R)-6,17′-dichloro-12′-ethyl-7′-methoxy-3,4-dihydro-2H,15′H-spiro[naphthalene-1,22′-[20]oxa[13]thia[1,14]diazatetracyclo[14.7.2.0^3,6.0^19,24]pentacosa [8,16,18,24]tetraen]-15′-one 13′,13′-dioxide] | 14.1 nM | 13600 nM | 
O=C1NS(=O)(=O)N(Cc2ncco2)CC/C=C/[C@H](O)[C@@H]2CC[C@H]2CN2C[C@@]3(CCCc4cc(Cl)ccc43)COc3ccc1cc32 [Example 694, (1S,3′R,6′R,7′S,8′E)-6-chloro-7′-hydroxy-12′-(1,3-oxazol-2-ylmethyl)-3,4-dihydro-2H,15′H-spiro[naphthalene-1,22′-[20]oxa[13]thia[1,12,14]triazatetracyclo[14.7.2.0^3,6.0^19,24]pentacosa[8,16,18,24]tetraen]-15′-one 13′,13′-dioxide] | 0.763 nM | 968 nM | 
CC[C@@H]1CC/C=C/[C@H](OC)[C@@H]2CC[C@H]2CN2C[C@@]3(CCCc4cc(Cl)ccc43)COc3cc(F)c(cc32)C(=O)NS1(=O)=O [Example 701, (1S,3′R,6′R,7′S,8′E,12′R)-6-chloro-12′-ethyl-17′-fluoro-7′-methoxy-3,4-dihydro-2H,15′H-spiro[naphthalene-1,22′-[20]oxa[13]thia[1,14]diazatetracyclo[14.7.2.0^3,6.0^19,24]pentacosa [8,16,18,24]tetraen]-15′-one 13′,13′-dioxide] | 1.44 nM | 2020 nM | 

Further lines, with some results ahead:

IC50 [1] | IC50 ([2]; Homo sapiens, OPM-2, 16 h) | SMILES | IC50 [2]
0.188 nM | 131 nM | COC(=O)CC1C(C)CC=CC(O)C2CCC2CN2CC3(CCCc4cc(Cl)ccc43)COc3ccc(cc32)C(=O)NS1(=O)=O (stereo not drawn) [Example 647] | 
0.207 nM | 148 nM | COC[C@H](O)CN1[C@@H](C)C/C=C/[C@H](O)[C@@H]2CC[C@H]2CN2C[C@@]3(CCCc4cc(Cl)ccc43)COc3ccc(cc32)C(=O)NS1(=O)=O [Example 687, (1S,3′R,6′R,7′S,8′E,11′S)-6-chloro-7′-hydroxy-12′-((2R)-2-hydroxy-3-methoxypropyl)-11′-methyl-3,4-dihydro-2H,15′H-spiro[naphthalene-1,22′-[20]oxa[13]thia[1,12,14]triazatetracyclo[14.7.2.0^3,6.0^19,24]pentacosa[8,16,18,24]tetraen]-15′-one 13′,13′-dioxide] | 
0.366 nM | 117 nM | COCCO[C@H]1/C=C/C[C@H](C)[C@@H](C)S(=O)(=O)NC(=O)c2ccc3c(c2)N(C[C@@H]2CC[C@H]21)C[C@@]1(CCCc2cc(Cl)ccc21)CO3 [Example 719, (1S,3′R,6′R,7′S,8′E,11′S,12′R)-6-chloro-7′-(2-methoxyethoxy)-11′,12′-dimethyl-3,4-dihydro-2H,15′H-spiro[naphthalene-1,22′-[20]oxa[13]thia[1,14]diazatetracyclo[14.7.2.0^3,6.0^19,24]pentacosa[8,16,18,24]tetraen]-15′-one-13′, 13′-dioxide] | 
0.327 nM | 54.2 nM | C[C@@H]1[C@@H](C)C/C=C/[C@H](OCCN2CCOCC2)[C@@H]2CC[C@H]2CN2C[C@@]3(CCCc4cc(Cl)ccc43)COc3ccc(cc32)C(=O)NS1(=O)=O [Example 720, (1S,3′R,6′R,7′S,8′E,11′S,12′R)-6-chloro-11′,12′-dimethyl-7′-(2-(4-morpholinyl)ethoxy)-3,4-dihydro-2H,15′H-spiro[naphthalene-1,22′-[20]oxa[13]thia[1,14]diazatetracyclo[14.7.2.0^3,6.0^19,24]pentacosa [8,16,18,24]tetraen]-15′-one-13′, 13′-dioxide] | 
0.539 nM | 73.5 nM | C[C@@H]1[C@@H](C)C/C=C/[C@H](OCCCN2CCOCC2)[C@@H]2CC[C@H]2CN2C[C@@]3(CCCc4cc(Cl)ccc43)COc3ccc(cc32)C(=O)NS1(=O)=O [Example 721, (1S,3′R,6′R,7′S,8′E,11′S,12′R)-6-chloro-11′,12′-dimethyl-7′-(3-(4-morpholinyl)propoxy)-3,4-dihydro-2H,15′H-spiro[naphthalene-1,22′-[20]oxa[13]thia[1,14]diazatetracyclo[14.7.2.0^3,6.0^19,24]pentacosa [8,16,18,24]tetraen]-15′-one-13′, 13′-dioxide] | 
11.9 nM | 473 nM | C[C@@H]1[C@@H](C)C/C=C/[C@H](OCCC2CCOCC2)[C@@H]2CC[C@H]2CN2C[C@@]3(CCCc4cc(Cl)ccc43)COc3ccc(cc32)C(=O)NS1(=O)=O [Example 722, (1S,3′R,6′R,7′S,8′E,11′S,12′R)-6-chloro-11′,12′-dimethyl-7′-(2-(tetrahydro-2H-pyran-4-yl)ethoxy)-3,4-dihydro-2H,15′H-spiro [naphthalene-1,22′-[20]oxa[13]thia[1,14]diazatetracyclo [14.7.2.0^3,6.0^19,24]pentacosa[8,16,18,24]tetraen]-15′-one-13′, 13′-dioxide] | 
0.485 nM | 138 nM | C[C@@H]1[C@@H](C)C/C=C/[C@H](OCCN2CCCCC2)[C@@H]2CC[C@H]2CN2C[C@@]3(CCCc4cc(Cl)ccc43)COc3ccc(cc32)C(=O)NS1(=O)=O [Example 723, (1S,3′R,6′R,7′S,8′E,11′5,12′R)-6-chloro-11′,12′-dimethyl-7′-(2-(1-piperidinyl)ethoxy)-3,4-dihydro-2H,15′H-spiro[naphthalene-1,22′-[20]oxa[13]thia[1,14]diazatetracyclo[14.7.2.0^3,6.0^19,24]pentacosa [8,16,18,24]tetraen]-15′-one-13′, 13′-dioxide] | 
0.485 nM | 420 nM | C[C@@H]1[C@@H](C)C/C=C\[C@H](OCCN2CCOCC2)[C@@H]2CC[C@H]2CN2C[C@@]3(CCCc4cc(Cl)ccc43)COc3ccc(cc32)C(=O)NS1(=O)=O [Example 724, (1S,3′R,6′R,7′S,8′Z,11′S,12′R)-6-chloro-11′,12′-dimethyl-7′-(2-(4-morpholinyl)ethoxy)-3,4-dihydro-2H,15′H-spiro[naphthalene-1,22′-[20]oxa[13]thia[1,14]diazatetracyclo[14.7.2.0^3,6.0^19,24]pentacosa [8,16,18,24]tetraen]-15′-one 13′,13′-dioxide] | 
12.2 nM | 2140 nM | Cc1ccc(S(=O)(=O)NCCO[C@H]2/C=C/C[C@H](C)[C@@H](C)S(=O)(=O)NC(=O)c3ccc4c(c3)N(C[C@@H]3CC[C@H]32)C[C@@]2(CCCc3cc(Cl)ccc32)CO4)cc1 [Example 726, N-(2-(((1S,3′R,6′R,7′S,8′E,11′S,12′R)-6-chloro-11′,12′-dimethyl-13′, 13′-dioxido-15′-oxo-3,4-dihydro-2H-spiro[naphthalene-1,22′-[20]oxa[13]thia[1,14]diazatetracyclo[14.7.2.0^3,6.0^19,24]pentacosa[8,16,18,24]tetraene]-7′-yl)oxy)ethyl)4-methylbenzenesulfonamide] | 
0.365 nM | 147 nM | C[C@@H]1[C@@H](C)C/C=C/[C@H](OCCN2CCOCC2=O)[C@@H]2CC[C@H]2CN2C[C@@]3(CCCc4cc(Cl)ccc43)COc3ccc(cc32)C(=O)NS1(=O)=O [Example 727, (1S,3′R,6′R,7′S,8′E,11′S,12′R)-6-chloro-11′,12′-dimethyl-7′-(2-(3-oxo-4-morpholinyl)ethoxy)-3,4-dihydro-2H,15′H-spiro[naphthalene-1,22′-[20]oxa[13]thia[1,14]diazatetracyclo[14.7.2.0^3,6.0^19,24]pentacosa [8,16,18,24]tetraen]-15′-one-13′, 13′-dioxide] | 
